{
  "source": "patent US5166379A",
  "about": "“Synthesis of compounds with biological activity, and methods of use” (Harbor Branch Oceanographic Institution, Inc., priority 1990, dated 1992)",
  "key": {"P388 cells": {"test_system": "P388 cells", "assay": "Antiproliferative effects against P388 cells (antitumor, MTT)", "format": "cell-based", "experimental": "IV. Antitumor Methodology\nTo assess the antiproliferative effects against P388 cells, 200 μl cultures (96-well tissue culture plates, Nunc, Denmark) were established at 1×10^5 cells/ml in drug-free medium or medium containing the pure compounds/crude extracts at a final dilution or 1:500 and at various concentrations. Solvent for all dilutions was methanol, which was removed from plates under vacuum. All experimental cultures were initiated in media containing Gentamicin sulfate (50 μg/ml; Schering Corporation, Kenilworth, NJ).\nTo quantitate the effects of pure compounds/crude extracts on cell proliferation, 75 μl of warm growth medium containing 5 mg/ml MTT was added to each well, cultures were returned to the incubator, and were left undisturbed for 90 minutes. To spectrophotometrically quantitate formation of reduced formazan, plates were centrifuged (900×g, 5 minutes), culture fluids removed by aspiration, and 200 μl of acidified isopropanol (2 ml concentrated HCl/liter isopropanol) added per well. The absorbance of the resulting solutions were measured at 570 nm with a plate reader (MR700 Microplate Reader, Dynatech Laboratories, Chantilly, VA)."}, "[1]": {"test_system": "murine splenocyte suspensions (BALB/c and C57BL/6J mice)", "assay": "Mixed Lymphocyte Reaction (MLR)", "format": "cell-based", "experimental": "I. Mixed Lymphocyte Reaction\n1. Murine splenocyte suspensions were prepared separately from BALB/c and C57BL/6J mice. […] The cell concentrations were adjusted to 2.5×10^6 cells/ml. Aliquots of each cell population were removed to separate tubes, and the remaining two cell suspensions combined to one tube.\n(§1) 2. Serial, log10 dilutions of the pure compound were made in absolute ethanol, and 10 μl of each dilution was added to wells of microtiter test plates, and allowed to dry.\n3. A volume of 0.2 ml of the combined splenocyte suspensions was added to triplicate test wells. Positive control wells received combined splenocyte suspensions in the absence of the test compounds. Negative control wells consisted of separate (not mixed) splenocyte suspensions cultured in the absence of the test compounds.\n4. Plates were incubated in 5% CO2 at 37° C. for 86 hours.\n5. A volume of 0.05 ml of ^3 H-thymidine (20 μCi/ml) was added to each well, and the plates were incubated in 5% CO2 at 37° C. for an additional 5 hours.\n6. The contents of each well of the microtiter plates were harvested onto glass fiber filter strips, and the resulting filter discs placed in scintillation vials to which 2.0 ml of scintillation fluid was added.\n7. The amount of incorporated ^3 H-thymidine was determined by counting the vials in a liquid scintillation counter.\n8. Triplicate counts were averaged, and the data reported as a percentage of the positive control."}, "[2]": {"test_system": "lymphoid cells (murine BALB/c splenocytes)", "assay": "Lymphocyte Viability Assay (LCV)", "format": "cell-based", "experimental": "(§2) II. Lymphocyte Viability Assay\n(§3) 1. Compounds were similarly tested in parallel with the MLR to determine their toxic effects on lymphoid cells using the lymphocyte viability assay (LCV).\nas §1\n(§4) 3. Murine splenocyte suspensions were prepared from BALB/c mice. […] The cell concentrations were adjusted to 2.5×10^6 cells/ml.\n(§5) 4. A volume of 0.2 ml of the splenocyte suspension was added to replicate test wells. Positive control wells received splenocyte suspensions in the absence of the test compounds.\n(§6) 5. Plates were incubated at 37° C. for 86 hours. At the end of the incubation period, a volume of 75 μl of a 2.0 mg/ml solution of MTT was added to each well, and the plates were returned to the incubator for an additional 5 hours.\n(§7) 6. The supernatants from each microwell were then removed, and a volume of 200 μl of isopropanol was added and the contents mixed.\n(§8) 7. Values were obtained by comparing the optical densities (determined at 570 and 650 nm) of wells containing the test compounds with those of wells containing cells and medium only (positive control). The results are expressed as a percentage of the positive control.\n(§9) 8. Replicate counts were averaged, and the data reported as a percentage of the positive control. An LCV value of less than 60% of the positive control is an indication of cytotoxicity of the test compounds for lymphoid cells."}, "[3]": {"test_system": "graft vs host reaction in CB6F1 mice grafted with BALB/c splenocytes", "assay": "Graft vs. Host (GVHR) in vivo activity", "conditions": "for % Suppression / Stim. Index (spleen index): i.p.", "experimental": "III. Graft vs. Host (GVHR) In Vivo Activity\n1. Donor mice (BALB/c) were sacrificed, spleens removed, and spleen cell suspensions prepared in tissue culture medium.\n2. The above splenocyte suspension was adjusted to 10.0×10^7 cells/ml.\n3. Mice were treated with varying dosages of the test compound. […] Treatment consisted of intraperitoneal injections, daily for 7 days. Dosages were calculated on a mg per kg body weight basis.\n4. On day 1 of the first treatment regimen, recipient mice (CB6) were injected intraperitoneally with 0.50 ml (50.0×10^6) of the donor (BALB/c) splenocyte suspension.\n5. Controls consisted of the following:\nPOS--mice receiving BALB/c splenocytes (Positive Control)\nSYN--mice receiving CB6 splenocytes (Syngeneic Control)\nCYP--mice receiving Cyclophosphamide (100 mg/kg) and BALB/c splenocytes\n6. At the end of five days, recipient mice were sacrificed, weighed, and spleens removed and weighed.\n7. A spleen index of 1.0 was assigned to the mean spleen weights (adjusted to body weight) of the SYN controls. The spleen index of treated mice was determined by comparing the spleen weights of those mice with that of the […]. […] As a general rule, a spleen index of less than the positive control is indicative of an immunosuppressive (ID) compound.\n^a CB6F1 mice (5 mice per group) were grafted with 5 ×\n10^7 BALB/c spelnocytes, i.p. on Day 0. Groups were injected, ii.p.,\nwith drug (or vehicle) on Days 1-6. Positive designates grafted mice\nreceiving vehicle alone.\n^b Number of surviving mice at end of experiment.\n(Stimulation Index of Syngeneic group (CB6F1 ->CB6F1) = 100"}, "[4]": {"assay": "Lymphocyte Viability Assay (LCV)", "format": "cell-based, murine", "conditions": "mouse, splenocytes, read-out: % LCV (percentage of positive control)", "experimental": "as §2, §3, §1, §4, §5, §6, §7, §8, §9"}},
  "note": "Read-outs that look alike come from different tables or passages of the source.",
  "data": [
    {"smiles": "C#CC(O)C=CCCCCCCCCC", "note": "(centres unmarked) [CH3 (CH2)8 CH=CH--CHOH--C≡CH]", "values": [
      {"measurement": "P388 IC50", "setting": "P388 cells; 48 hour exposure", "result": 27.0, "unit": "µg/mL"},
      {"measurement": "% MLR (percentage of positive control)", "setting": "[1]; 0.05 μg/ml", "result": 120, "unit": "%"},
      {"measurement": "% MLR (percentage of positive control)", "setting": "[1]; 0.2 μg/ml", "result": 0, "unit": "%"},
      {"measurement": "% MLR (percentage of positive control)", "setting": "[1]; 0.8 μg/ml", "result": 0, "unit": "%"},
      {"measurement": "% MLR (percentage of positive control)", "setting": "[1]; 3.1 μg/ml", "result": 0, "unit": "%"},
      {"measurement": "% MLR (percentage of positive control)", "setting": "[1]; 12.5 μg/ml", "result": 0, "unit": "%"},
      {"measurement": "% MLR (percentage of positive control)", "setting": "[1]; 50 μg/ml", "result": 0, "unit": "%"},
      {"measurement": "% LCV (percentage of positive control)", "setting": "[2]; 0.05 μg/ml", "result": 35, "unit": "%"},
      {"measurement": "% LCV (percentage of positive control)", "setting": "[2]; 0.2 μg/ml", "result": 44, "unit": "%"},
      {"measurement": "% LCV (percentage of positive control)", "setting": "[2]; 0.8 μg/ml", "result": 30, "unit": "%"},
      {"measurement": "% LCV (percentage of positive control)", "setting": "[2]; 3.1 μg/ml", "result": 26, "unit": "%"},
      {"measurement": "% LCV (percentage of positive control)", "setting": "[2]; 12.5 μg/ml", "result": 5, "unit": "%"},
      {"measurement": "% LCV (percentage of positive control)", "setting": "[2]; 50 μg/ml", "result": 0, "unit": "%"}
    ]},
    {"smiles": "C#CC(O)/C=C/CCCCCCCCCCCCCCC", "note": "(centres unmarked) [CH3 (CH2)14 CH=CH--CHOH--C≡CH]", "values": [
      {"measurement": "IC50", "setting": "P388 cells; Mus musculus, P388, 48 hour exposure", "result": 9.4, "unit": "µg/mL"},
      {"measurement": "activity at 0.05 µg/mL", "setting": "[1]; Mus musculus, Splenocyte, 0.05 μg/ml, read-out: % MLR (percentage of positive control)", "result": 0, "unit": "%"},
      {"measurement": "activity at 0.2 µg/mL", "setting": "[1]; Mus musculus, Splenocyte, 0.2 μg/ml, read-out: % MLR (percentage of positive control)", "result": 0, "unit": "%"},
      {"measurement": "activity at 0.8 µg/mL", "setting": "[1]; Mus musculus, Splenocyte, 0.8 μg/ml, read-out: % MLR (percentage of positive control)", "result": 0, "unit": "%"},
      {"measurement": "activity at 3.1 µg/mL", "setting": "[1]; Mus musculus, Splenocyte, 3.1 μg/ml, read-out: % MLR (percentage of positive control)", "result": 0, "unit": "%"},
      {"measurement": "activity at 12.5 µg/mL", "setting": "[1]; Mus musculus, Splenocyte, 12.5 μg/ml, read-out: % MLR (percentage of positive control)", "result": 0, "unit": "%"},
      {"measurement": "activity at 50 µg/mL", "setting": "[1]; Mus musculus, Splenocyte, 50 μg/ml, read-out: % MLR (percentage of positive control)", "result": 0, "unit": "%"},
      {"measurement": "% Suppression", "setting": "[3]; 25.0 mg/kg", "result": 45, "unit": "%"},
      {"measurement": "Stim. Index (spleen index)", "setting": "[3]; 25.0 mg/kg", "result": "1.63 ± .25"},
      {"measurement": "% Suppression", "setting": "[3]; 50.0 mg/kg", "result": 25, "unit": "%"},
      {"measurement": "Stim. Index (spleen index)", "setting": "[3]; 50.0 mg/kg", "result": "1.86 ± .18"},
      {"measurement": "% Suppression", "setting": "[3]; 100 mg/kg", "result": 0, "unit": "%"},
      {"measurement": "Stim. Index (spleen index)", "setting": "[3]; 100 mg/kg", "result": "2.35 ± .15"},
      {"measurement": "% Suppression", "setting": "[3]; 150.0 mg/kg", "result": 81, "unit": "%"},
      {"measurement": "Stim. Index (spleen index)", "setting": "[3]; 150.0 mg/kg", "result": "1.22 ± .03"},
      {"measurement": "suppression of the GVHR (splenomegaly response), in words", "setting": "[3]; mouse, in vivo", "result": "could mediate the suppression of the GVHR"},
      {"measurement": "viability", "setting": "[4]; 0.05 μg/ml", "result": 63, "unit": "%"},
      {"measurement": "viability", "setting": "[4]; 0.2 μg/ml", "result": 42, "unit": "%"},
      {"measurement": "viability", "setting": "[4]; 0.8 μg/ml", "result": 20, "unit": "%"},
      {"measurement": "viability", "setting": "[4]; 3.1 μg/ml", "result": 19, "unit": "%"},
      {"measurement": "viability", "setting": "[4]; 12.5 μg/ml", "result": 19, "unit": "%"},
      {"measurement": "viability", "setting": "[4]; 50 μg/ml", "result": 11, "unit": "%"}
    ]}
  ]
}
